As usually defined, the Kd is a measure of binding affinity in units of concentration. A lower Kd goes with higher affinity.

The values that follow come from patent publication US9296722B2, “Azolyl urea compounds and methods of use thereof” (Ambit Biosciences Corporation, priority 2010, dated 2016).

For one experiment, the target named is T1, CSF1R (mouse) (Mus musculus, UniProt P09581).
T1 construct: made in house; host or cells: T7 phage display or HEK-293 cells (alternatives, not resolved per kinase)
T1 sequence (P09581 20-977): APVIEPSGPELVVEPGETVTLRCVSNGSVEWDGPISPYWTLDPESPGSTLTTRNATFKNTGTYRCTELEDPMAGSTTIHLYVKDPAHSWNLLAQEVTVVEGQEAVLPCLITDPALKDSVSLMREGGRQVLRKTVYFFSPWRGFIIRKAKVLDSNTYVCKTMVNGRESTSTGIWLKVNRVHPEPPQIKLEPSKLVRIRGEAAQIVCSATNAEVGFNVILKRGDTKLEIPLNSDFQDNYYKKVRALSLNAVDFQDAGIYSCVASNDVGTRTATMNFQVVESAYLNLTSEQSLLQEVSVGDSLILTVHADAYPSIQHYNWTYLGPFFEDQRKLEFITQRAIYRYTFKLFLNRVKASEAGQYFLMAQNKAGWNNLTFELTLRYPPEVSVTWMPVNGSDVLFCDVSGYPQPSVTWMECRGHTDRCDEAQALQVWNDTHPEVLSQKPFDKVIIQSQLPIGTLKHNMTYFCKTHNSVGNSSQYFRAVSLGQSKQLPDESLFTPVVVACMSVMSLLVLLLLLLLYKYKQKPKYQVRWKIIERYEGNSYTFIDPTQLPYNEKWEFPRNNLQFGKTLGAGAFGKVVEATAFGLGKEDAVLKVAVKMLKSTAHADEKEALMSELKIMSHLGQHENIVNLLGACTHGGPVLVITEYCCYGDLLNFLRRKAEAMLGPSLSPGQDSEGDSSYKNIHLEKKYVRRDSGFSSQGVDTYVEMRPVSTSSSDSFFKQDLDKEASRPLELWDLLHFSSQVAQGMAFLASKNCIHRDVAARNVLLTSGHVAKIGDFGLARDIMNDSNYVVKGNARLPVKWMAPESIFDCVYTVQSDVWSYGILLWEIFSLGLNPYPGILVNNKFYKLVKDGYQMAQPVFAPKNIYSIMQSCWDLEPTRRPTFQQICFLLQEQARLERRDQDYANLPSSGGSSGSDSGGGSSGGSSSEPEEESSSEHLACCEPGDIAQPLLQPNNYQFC
Nature of the experiment: Competition binding assay, CSF1R (mouse) Kd. On the procedure:
The liganded beads were blocked with excess biotin and washed with blocking buffer (SeaBlock (Pierce), 1% BSA, 0.05% Tween 20, 1 mM DTT) to remove unbound ligand and to reduce non-specific binding. […] Test compounds were prepared as 100× stocks in DMSO and diluted into the aqueous environment. Kds were determined using an eleven point threefold serial dilutions. DMSO or control compounds were was added to control assays lacking a test compound. […] The kinase concentration in the eluates was measured by quantitative PCR.

The test system of another experiment is M-NFS-60 cells. As to the kind of experiment: M-NFS-60 cell proliferation assay. It is filed as cell-based, mouse. Particulars: Mus musculus; 72 hours incubation, Alamar Blue, M-CSF-dependent cells; read-out: CSF1R Cell Proliferation (M-NFS-60) IC50. Put shortly: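 Mouse monocytic M-NFS-60 cells, M-CSF-dependent (20 ng/mL M-CSF, 10% FBS), seeded 10,000/well overnight, then exposed to 9 half-log compound concentrations (0.5% DMSO) for 72 h at 37 °C. Viability by Alamar Blue fluorescence (560/590 nm) after 3 h; IC50 as mean of duplicates versus control.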
(Resazurin is reduced to fluorescent resorufin, in cell work by metabolically active cells.)

In experiment [1] the target is kinase panel containing either 359 or 386 distinct kinases. Nature of the experiment: Competition binding assay, selectivity score (S10) against a panel of kinases. Particulars: compounds at 10 μM; fraction of kinases with percent of control less than 10.
Another experiment has as its target T2, CSF1R (human) (Homo sapiens, UniProt P07333).
T2 construct: made in house; host or cells: T7 phage display or HEK-293 cells (alternatives, not resolved per kinase)
Nature of the experiment: Competition binding assay, CSF1R (human) Kd.

T2 sequence (P07333 20-972): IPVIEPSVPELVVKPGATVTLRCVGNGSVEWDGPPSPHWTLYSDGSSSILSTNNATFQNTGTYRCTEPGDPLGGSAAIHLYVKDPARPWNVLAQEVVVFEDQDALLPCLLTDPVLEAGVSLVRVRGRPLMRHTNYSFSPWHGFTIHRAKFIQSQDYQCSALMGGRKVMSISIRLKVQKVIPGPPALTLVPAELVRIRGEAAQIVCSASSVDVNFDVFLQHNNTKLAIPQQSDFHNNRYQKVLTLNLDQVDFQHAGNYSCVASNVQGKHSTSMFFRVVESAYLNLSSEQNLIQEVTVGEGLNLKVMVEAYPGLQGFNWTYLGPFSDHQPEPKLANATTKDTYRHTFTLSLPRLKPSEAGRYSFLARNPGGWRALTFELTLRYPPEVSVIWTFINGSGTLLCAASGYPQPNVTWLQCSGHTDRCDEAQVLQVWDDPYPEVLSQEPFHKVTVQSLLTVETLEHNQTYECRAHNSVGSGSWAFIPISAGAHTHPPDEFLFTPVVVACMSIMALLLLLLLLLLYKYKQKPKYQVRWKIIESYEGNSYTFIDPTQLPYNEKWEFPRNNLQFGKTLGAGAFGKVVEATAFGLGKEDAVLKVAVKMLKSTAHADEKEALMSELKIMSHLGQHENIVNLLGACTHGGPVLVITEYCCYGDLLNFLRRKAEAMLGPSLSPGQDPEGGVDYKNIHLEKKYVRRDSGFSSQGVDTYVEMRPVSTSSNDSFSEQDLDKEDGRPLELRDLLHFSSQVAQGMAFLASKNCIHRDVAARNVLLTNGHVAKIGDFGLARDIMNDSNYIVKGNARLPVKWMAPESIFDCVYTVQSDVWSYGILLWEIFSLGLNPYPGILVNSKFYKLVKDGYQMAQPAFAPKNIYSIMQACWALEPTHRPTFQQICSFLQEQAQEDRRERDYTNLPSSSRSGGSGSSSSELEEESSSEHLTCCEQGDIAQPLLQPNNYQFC

As for `CN1CCN(c2ccnc(C(=O)Nc3ccc(NC(=O)Nc4cc(C(C)(C)C)on4)cc3)c2)CC1`, the Kd at CSF1R (mouse) and on CSF1R (human) was 3 to 10 nM each time. Also, in the experiment with M-NFS-60 cells, the IC50 lay in the range of 100 to 250 nM. Besides, in experiment [1], the “Kinase Specificity (S10)” value is listed as “B (0.03 < B ≦ 0.05)”.

For the molecule `CC(C)(C)c1cc(NC(=O)Nc2ccc(NC(=O)c3cccc(CN)n3)cc2)no1.Cl`, the equilibrium dissociation constant (Kd) on CSF1R (mouse) and on CSF1R (human) was > 10 nM each time. The IC50 in the experiment on M-NFS-60 cells was 250 to 1000 nM. Further, the “Kinase Specificity (S10)” value in experiment [1] is reported as “A (A ≦ 0.03)”.
